Key:
[1] = molecular target: Interferon-induced, double-stranded RNA-activated protein kinase (Homo sapiens) (UniProt P19525); assay: Residual activity of EIF2AK2 at 0.1 uM by microplate scintillation counting
[2] = molecular target: Serine/threonine-protein kinase B-raf (Homo sapiens) (UniProt P15056); assay: Residual activity of Wild type B-RAF at 1 uM by microplate scintillation counting
[3] = molecular target: G protein-coupled receptor kinase 6 (Homo sapiens) (UniProt P43250); assay: Residual activity of GRK6 at 10 uM by microplate scintillation counting
[4] = molecular target: Tyrosine-protein kinase Lck (Homo sapiens) (UniProt P06239); assay: Residual activity of LCK at 1 uM by microplate scintillation counting
[5] = tested on: Epidermal growth factor receptor (Homo sapiens), P00533 [L858R,T790M]; assay: Residual activity of EGFR T790M/L858R at 1 uM by microplate scintillation counting
[6] = molecular target: Maternal embryonic leucine zipper kinase (Homo sapiens) (UniProt Q14680); assay: Residual activity of MELK at 10 uM by microplate scintillation counting
[7] = molecular target: T1, Serine/threonine-protein kinase Sgk1 (Homo sapiens) (UniProt O00141); assay: Residual activity of SGK1 at 10 uM by microplate scintillation counting
T1 sequence (whole entry): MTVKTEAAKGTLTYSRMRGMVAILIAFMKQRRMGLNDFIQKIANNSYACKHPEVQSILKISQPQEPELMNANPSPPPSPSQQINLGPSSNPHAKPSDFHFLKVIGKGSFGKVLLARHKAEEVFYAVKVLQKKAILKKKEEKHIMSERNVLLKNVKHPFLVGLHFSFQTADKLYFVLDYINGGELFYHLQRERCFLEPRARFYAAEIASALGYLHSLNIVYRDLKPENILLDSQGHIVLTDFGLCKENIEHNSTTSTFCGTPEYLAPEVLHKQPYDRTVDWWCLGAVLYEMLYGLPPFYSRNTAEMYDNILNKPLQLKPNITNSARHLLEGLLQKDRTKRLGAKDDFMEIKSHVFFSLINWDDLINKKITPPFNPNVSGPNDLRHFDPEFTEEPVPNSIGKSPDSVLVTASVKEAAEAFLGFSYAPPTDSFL

[8] = molecular target: Ribosomal protein S6 kinase alpha-6 (Homo sapiens) (UniProt Q9UK32); assay: Residual activity of RPS6KA6 at 10 uM by microplate scintillation counting
[9] = molecular target: Dual specificity protein kinase CLK1 (Homo sapiens) (UniProt P49759); assay: Residual activity of CLK1 at 0.1 uM by microplate scintillation counting
[10] = molecular target: CDK1/Cyclin E (Homo sapiens) (UniProt P06493+P24864); assay: Residual activity of CDK1/Cyclin E at 0.1 uM by microplate scintillation counting; type: protein-complex assay
[11] = molecular target: T2, Inhibitor of nuclear factor kappa-B kinase subunit alpha (Homo sapiens) (UniProt O15111); assay: Residual activity of IKKalpha at 1 uM by microplate scintillation counting
T2 sequence (whole entry): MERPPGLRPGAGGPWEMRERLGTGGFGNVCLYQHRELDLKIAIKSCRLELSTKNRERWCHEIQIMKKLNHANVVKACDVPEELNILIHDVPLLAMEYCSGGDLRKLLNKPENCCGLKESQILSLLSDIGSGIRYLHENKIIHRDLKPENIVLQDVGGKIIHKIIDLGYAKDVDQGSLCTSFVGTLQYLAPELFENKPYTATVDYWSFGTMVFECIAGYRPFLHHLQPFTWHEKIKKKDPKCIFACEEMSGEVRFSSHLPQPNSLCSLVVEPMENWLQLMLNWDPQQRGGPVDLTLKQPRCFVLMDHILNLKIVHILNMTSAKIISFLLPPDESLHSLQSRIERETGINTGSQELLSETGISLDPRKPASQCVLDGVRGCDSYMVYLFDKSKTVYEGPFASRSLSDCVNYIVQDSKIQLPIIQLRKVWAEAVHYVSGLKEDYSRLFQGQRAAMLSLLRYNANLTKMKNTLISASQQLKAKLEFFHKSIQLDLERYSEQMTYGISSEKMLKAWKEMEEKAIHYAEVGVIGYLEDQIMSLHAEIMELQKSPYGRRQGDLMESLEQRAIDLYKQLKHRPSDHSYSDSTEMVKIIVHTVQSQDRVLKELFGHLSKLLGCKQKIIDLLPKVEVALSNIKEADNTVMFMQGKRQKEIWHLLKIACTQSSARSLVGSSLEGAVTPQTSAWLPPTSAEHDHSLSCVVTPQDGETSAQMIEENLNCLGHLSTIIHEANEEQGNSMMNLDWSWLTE

[12] = molecular target: T3, Serine/threonine-protein kinase NLK (Homo sapiens) (UniProt Q9UBE8); assay: Residual activity of NLK at 1 uM by microplate scintillation counting
T3 sequence (whole entry): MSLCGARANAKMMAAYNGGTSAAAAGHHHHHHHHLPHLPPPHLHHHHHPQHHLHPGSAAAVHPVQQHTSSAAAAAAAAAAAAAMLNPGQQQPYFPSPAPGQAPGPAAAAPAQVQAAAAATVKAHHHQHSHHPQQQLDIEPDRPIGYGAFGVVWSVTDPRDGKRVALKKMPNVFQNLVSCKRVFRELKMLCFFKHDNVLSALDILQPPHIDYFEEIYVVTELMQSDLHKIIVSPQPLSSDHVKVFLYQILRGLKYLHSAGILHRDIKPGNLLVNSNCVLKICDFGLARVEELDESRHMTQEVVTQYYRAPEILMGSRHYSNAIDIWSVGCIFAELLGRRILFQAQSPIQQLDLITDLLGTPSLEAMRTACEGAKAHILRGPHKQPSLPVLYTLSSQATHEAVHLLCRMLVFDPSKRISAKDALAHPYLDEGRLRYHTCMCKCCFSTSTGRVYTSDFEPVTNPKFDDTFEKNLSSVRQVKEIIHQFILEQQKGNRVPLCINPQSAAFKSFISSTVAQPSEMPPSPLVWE

Dual specificity protein kinase CLK1 (Homo sapiens), sequence (P49759 whole entry, looked up): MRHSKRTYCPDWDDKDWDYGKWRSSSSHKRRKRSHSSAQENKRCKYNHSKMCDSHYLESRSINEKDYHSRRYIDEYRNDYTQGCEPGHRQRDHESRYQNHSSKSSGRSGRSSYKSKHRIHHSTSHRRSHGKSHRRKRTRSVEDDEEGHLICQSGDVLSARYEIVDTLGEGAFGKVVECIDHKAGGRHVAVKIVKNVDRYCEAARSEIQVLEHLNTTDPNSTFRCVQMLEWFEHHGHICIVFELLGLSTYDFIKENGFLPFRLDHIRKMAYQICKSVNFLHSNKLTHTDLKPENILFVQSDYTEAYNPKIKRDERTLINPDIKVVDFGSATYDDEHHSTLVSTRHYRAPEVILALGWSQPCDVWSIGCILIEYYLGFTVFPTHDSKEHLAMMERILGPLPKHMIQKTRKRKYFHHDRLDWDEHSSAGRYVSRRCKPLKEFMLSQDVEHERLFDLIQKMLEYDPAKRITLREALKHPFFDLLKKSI
CDK1/Cyclin E (Homo sapiens), sequence (P06493 whole entry, looked up): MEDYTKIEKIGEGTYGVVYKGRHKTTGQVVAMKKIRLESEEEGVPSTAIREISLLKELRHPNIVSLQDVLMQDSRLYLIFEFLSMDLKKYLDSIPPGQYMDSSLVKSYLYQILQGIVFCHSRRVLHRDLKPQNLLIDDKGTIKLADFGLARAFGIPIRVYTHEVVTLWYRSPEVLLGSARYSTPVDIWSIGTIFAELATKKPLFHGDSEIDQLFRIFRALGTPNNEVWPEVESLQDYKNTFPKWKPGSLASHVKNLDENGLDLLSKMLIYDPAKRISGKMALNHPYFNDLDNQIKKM
CDK1/Cyclin E (Homo sapiens), sequence (P24864 whole entry, looked up): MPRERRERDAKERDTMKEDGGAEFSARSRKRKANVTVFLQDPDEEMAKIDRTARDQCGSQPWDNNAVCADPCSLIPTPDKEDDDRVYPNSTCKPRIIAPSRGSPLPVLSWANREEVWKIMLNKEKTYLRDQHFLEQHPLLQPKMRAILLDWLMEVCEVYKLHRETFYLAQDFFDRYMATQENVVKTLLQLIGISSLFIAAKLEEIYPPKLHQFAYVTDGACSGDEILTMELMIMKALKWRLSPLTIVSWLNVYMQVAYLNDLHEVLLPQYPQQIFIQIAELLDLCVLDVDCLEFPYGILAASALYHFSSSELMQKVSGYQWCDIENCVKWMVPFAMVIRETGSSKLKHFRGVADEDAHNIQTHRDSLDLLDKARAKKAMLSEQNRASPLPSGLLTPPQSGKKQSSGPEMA
G protein-coupled receptor kinase 6 (Homo sapiens), sequence (P43250 whole entry, looked up): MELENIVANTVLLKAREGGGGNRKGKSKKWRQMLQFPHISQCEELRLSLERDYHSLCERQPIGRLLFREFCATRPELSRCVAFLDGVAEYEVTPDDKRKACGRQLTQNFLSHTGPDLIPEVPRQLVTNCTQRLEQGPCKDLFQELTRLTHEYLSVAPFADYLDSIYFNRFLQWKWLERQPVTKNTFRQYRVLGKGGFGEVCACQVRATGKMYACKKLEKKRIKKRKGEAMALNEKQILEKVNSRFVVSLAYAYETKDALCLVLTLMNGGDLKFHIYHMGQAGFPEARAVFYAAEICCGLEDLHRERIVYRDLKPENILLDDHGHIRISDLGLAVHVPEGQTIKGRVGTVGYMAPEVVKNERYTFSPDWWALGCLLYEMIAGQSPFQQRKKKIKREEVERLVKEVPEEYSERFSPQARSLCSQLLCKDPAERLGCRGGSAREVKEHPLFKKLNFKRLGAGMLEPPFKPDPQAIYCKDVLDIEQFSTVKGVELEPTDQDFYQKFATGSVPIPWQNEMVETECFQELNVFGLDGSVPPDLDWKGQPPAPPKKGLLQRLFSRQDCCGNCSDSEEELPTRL
Interferon-induced, double-stranded RNA-activated protein kinase (Homo sapiens), sequence (P19525 whole entry): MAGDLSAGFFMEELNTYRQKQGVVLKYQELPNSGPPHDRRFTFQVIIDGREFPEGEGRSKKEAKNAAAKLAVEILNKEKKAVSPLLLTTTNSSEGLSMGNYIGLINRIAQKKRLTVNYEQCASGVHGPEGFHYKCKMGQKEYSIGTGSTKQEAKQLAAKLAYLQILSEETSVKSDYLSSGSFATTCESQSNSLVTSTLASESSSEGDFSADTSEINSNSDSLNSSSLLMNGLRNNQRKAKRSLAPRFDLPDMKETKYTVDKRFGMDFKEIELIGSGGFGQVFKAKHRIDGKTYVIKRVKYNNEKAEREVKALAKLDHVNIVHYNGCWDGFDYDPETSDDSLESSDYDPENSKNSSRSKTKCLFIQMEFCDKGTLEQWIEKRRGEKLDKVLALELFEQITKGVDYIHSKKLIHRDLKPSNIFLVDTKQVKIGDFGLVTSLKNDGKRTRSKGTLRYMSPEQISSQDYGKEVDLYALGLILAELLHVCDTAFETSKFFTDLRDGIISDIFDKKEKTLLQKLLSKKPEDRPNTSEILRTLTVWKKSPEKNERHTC
Serine/threonine-protein kinase B-raf (Homo sapiens), sequence (P15056 whole entry): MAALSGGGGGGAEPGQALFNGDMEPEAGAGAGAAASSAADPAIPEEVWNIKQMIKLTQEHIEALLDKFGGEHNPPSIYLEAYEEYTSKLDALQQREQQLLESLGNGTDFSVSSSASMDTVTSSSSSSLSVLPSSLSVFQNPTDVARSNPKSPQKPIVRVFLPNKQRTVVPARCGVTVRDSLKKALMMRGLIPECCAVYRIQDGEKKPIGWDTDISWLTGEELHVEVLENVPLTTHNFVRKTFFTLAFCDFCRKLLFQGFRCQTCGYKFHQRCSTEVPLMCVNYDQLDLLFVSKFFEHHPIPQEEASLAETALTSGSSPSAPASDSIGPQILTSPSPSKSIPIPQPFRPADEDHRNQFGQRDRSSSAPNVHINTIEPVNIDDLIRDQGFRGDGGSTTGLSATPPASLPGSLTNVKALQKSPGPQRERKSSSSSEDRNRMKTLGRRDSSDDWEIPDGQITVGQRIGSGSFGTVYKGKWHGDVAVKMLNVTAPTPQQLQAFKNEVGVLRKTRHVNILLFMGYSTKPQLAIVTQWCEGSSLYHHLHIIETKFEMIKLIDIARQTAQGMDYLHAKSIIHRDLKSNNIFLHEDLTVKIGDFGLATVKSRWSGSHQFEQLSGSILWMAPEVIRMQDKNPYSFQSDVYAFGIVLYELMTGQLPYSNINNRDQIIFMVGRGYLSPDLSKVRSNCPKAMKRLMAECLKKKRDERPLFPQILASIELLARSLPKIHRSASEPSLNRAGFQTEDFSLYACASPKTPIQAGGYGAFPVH
Ribosomal protein S6 kinase alpha-6 (Homo sapiens), sequence (Q9UK32 whole entry): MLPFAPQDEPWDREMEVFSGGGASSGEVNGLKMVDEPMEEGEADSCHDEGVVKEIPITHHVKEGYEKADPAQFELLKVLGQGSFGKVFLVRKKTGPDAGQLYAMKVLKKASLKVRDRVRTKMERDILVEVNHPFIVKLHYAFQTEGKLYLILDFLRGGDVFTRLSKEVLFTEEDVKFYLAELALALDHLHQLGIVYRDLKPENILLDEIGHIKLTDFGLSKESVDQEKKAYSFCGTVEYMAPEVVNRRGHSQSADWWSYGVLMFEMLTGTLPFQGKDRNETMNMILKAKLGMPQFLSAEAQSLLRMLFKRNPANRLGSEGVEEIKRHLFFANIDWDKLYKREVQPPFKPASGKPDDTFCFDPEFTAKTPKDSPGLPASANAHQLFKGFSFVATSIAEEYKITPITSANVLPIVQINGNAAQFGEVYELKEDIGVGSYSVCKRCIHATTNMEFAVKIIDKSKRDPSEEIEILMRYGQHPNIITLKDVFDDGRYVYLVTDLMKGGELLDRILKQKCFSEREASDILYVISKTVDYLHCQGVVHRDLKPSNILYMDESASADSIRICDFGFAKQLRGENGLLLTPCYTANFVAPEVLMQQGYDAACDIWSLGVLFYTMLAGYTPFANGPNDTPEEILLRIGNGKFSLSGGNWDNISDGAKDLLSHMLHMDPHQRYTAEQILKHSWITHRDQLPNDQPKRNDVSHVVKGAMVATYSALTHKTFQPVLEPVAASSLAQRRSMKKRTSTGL
Maternal embryonic leucine zipper kinase (Homo sapiens), sequence (Q14680 whole entry, looked up): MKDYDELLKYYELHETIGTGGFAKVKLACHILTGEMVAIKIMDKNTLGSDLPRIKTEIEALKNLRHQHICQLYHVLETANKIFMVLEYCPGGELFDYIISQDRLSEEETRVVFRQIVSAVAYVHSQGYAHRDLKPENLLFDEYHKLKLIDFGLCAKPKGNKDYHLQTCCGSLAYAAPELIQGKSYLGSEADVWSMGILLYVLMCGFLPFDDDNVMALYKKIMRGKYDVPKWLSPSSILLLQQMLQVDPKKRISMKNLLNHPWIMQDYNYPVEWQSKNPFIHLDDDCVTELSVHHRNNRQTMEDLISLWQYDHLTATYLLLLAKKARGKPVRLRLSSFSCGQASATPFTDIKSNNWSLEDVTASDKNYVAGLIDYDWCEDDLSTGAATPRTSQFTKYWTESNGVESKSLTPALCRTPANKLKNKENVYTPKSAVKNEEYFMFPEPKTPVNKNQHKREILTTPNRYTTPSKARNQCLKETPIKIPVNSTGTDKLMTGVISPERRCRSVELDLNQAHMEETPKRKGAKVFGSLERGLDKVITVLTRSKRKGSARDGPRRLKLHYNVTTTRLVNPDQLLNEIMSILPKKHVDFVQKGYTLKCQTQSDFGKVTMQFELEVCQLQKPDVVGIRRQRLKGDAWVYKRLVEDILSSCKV
Tyrosine-protein kinase Lck (Homo sapiens), sequence (P06239 2-509 limits assumed): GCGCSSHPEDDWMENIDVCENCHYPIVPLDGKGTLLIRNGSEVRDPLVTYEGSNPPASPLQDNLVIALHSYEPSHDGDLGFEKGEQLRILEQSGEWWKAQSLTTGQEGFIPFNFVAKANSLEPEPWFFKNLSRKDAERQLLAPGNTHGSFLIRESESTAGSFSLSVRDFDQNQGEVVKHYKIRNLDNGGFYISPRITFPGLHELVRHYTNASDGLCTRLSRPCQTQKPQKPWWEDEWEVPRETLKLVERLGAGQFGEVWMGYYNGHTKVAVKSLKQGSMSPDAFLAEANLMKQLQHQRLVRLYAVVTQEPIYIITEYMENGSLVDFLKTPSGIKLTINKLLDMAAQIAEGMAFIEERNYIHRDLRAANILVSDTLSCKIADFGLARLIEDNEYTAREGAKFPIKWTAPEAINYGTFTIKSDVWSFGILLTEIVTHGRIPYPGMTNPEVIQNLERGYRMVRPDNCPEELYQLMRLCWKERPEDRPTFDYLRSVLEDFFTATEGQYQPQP

SMILES | residual activity [1] [%] | residual activity [2] [%] | residual activity [3] [%] | residual activity [4] [%] | residual activity [5] [%] | residual activity [6] [%] | residual activity [7] [%] | residual activity [8] [%] | residual activity [9] [%] | residual activity [10] [%] | residual activity [11] [%] | residual activity [12] [%]
COc1cc2c(Oc3ccc(-c4nc5ccccc5s4)cc3F)ncnc2cc1OCCCN1CCN(C)CC1 | 95 | 83 | 104 | 50 | 99 | 77 | 117 | 32 | 96 | 89 | 99 | 113
COc1cc2c(Oc3ccc(-c4nc5ccccc5s4)cc3)ncnc2cc1OCCCN1CCCC1 | 82 | 77 | 105 | 64 | 100 | 85 | 92 | 50 | 114 | 78 | 95 | 96
COc1cc2c(Oc3ccc(-c4nc5ccccc5s4)cc3)ncnc2cc1OCCCN1CCN(C)CC1 | 70 | 79 | 91 | 46 | 103 | 98 | 0 | 35 | 94 | 85 | 98 | 113

Reference: ChEMBL document CHEMBL1152560, “Substituted 2-arylbenzothiazoles as kinase inhibitors: hit-to-lead optimization” (Bioorg Med Chem, 2009)
